Measurements as given in PubChem BioAssay AID330 (DTP/NCI, 2004).
Toxic doses and inconclusive results are not listed. Rule for the calls: active = survival T/C of 150% or more; inactive = T/C below 125% in these data.

System: P388 leukemia ip, CD2F1 mice, survival T/C
Assay: NCI In Vivo Anticancer Drug Screen. Data for tumor model P388 Leukemia (intraperitoneal) in CD2F1 (CDF1) mice
Conditions: endpoint: median survival time, higher = longer survival
Outline: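 Mice carrying the transplanted tumor received test compound or vehicle. Survival was recorded in each group, and the value is the treated-group measurement divided by that of the vehicle-treated control group.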

[1] = dose: 25.0 mg/kg/injection, schedule: Q01DX005 (ip), vehicle: Klucel (hydroxypropylcellulose) (HPC)
[2] = dose: 50.0 mg/kg/injection, schedule: Q01DX005 (ip), vehicle: Klucel (hydroxypropylcellulose) (HPC)
[3] = dose: 100.0 mg/kg/injection, schedule: Q01DX005 (ip), vehicle: Klucel (hydroxypropylcellulose) (HPC)
[4] = dose: 200.0 mg/kg/injection, schedule: Q01DX005 (ip), vehicle: Klucel (hydroxypropylcellulose) (HPC)

Measured: T/C

O=C(O)C1SCCCS1
inactive: dose: 60.0 mg/kg/injection, schedule: Q01DX005 (ip), vehicle: saline with Tween-80 100 % of control | dose: 120.0 mg/kg/injection, schedule: Q01DX005 (ip), vehicle: saline with Tween-80 98 % of control | dose: 240.0 mg/kg/injection, schedule: Q01DX005 (ip), vehicle: saline with Tween-80 100 % of control

COc1cccc(C2CC(C)(O)Oc3cc4c(cc32)OCO4)c1O (configuration not stated)
inactive: dose: 60.0 mg/kg/injection, schedule: Q01DX005 (ip), vehicle: Klucel (hydroxypropylcellulose) (HPC) 100 % of control | dose: 120.0 mg/kg/injection, schedule: Q01DX005 (ip), vehicle: Klucel (hydroxypropylcellulose) (HPC) 100 % of control | dose: 240.0 mg/kg/injection, schedule: Q01DX005 (ip), vehicle: Klucel (hydroxypropylcellulose) (HPC) 92 % of control

CC(C)(C)NCC(CN1CCOCC1)C(=O)c1ccccc1 (configuration not stated)
inactive: dose: 6.25 mg/kg/injection, schedule: Q01DX005 (ip), vehicle: Klucel (hydroxypropylcellulose) (HPC) 99 % of control | dose: 12.5 mg/kg/injection, schedule: Q01DX005 (ip), vehicle: Klucel (hydroxypropylcellulose) (HPC) 96 % of control

CCOC(=O)N(C)C(=O)CN(C=O)c1ncc([N+](=O)[O-])s1
inactive: dose: 100.0 mg/kg/injection, schedule: Q01DX001 (ip), vehicle: saline 101 % of control | dose: 200.0 mg/kg/injection, schedule: Q01DX001 (ip), vehicle: saline 101 % of control | dose: 400.0 mg/kg/injection, schedule: Q01DX001 (ip), vehicle: saline 100 % of control

CCOC(=O)c1cnc2c(ccc3cc(OC)ccc32)c1NCCCN(CC)CC
inactive: [1] 97 % of control | [2] 97 % of control | [3] 100 % of control | [4] 97 % of control

CC12CCC3(CO3)CC1CCC1C2CCC2(C)C1CCC21CO1 (configuration not stated)
inactive: dose: 100.0 mg/kg/injection, schedule: Q01DX001 (ip), vehicle: saline with Tween-80 102 % of control | dose: 200.0 mg/kg/injection, schedule: Q01DX001 (ip), vehicle: saline with Tween-80 99 % of control | dose: 400.0 mg/kg/injection, schedule: Q01DX001 (ip), vehicle: saline with Tween-80 88 % of control

CC(C)(C)/C=C/N=NNc1ccccn1
inactive: dose: 100.0 mg/kg/injection, schedule: Q01DX001 (ip), vehicle: Klucel (hydroxypropylcellulose) (HPC) 97 % of control | dose: 200.0 mg/kg/injection, schedule: Q01DX001 (ip), vehicle: Klucel (hydroxypropylcellulose) (HPC) 92 % of control | dose: 400.0 mg/kg/injection, schedule: Q01DX001 (ip), vehicle: Klucel (hydroxypropylcellulose) (HPC) 94 % of control

Clc1ccccc1N/N=c1\nnc2c(Cl)cccc2s1
inactive: dose: 50.0 mg/kg/injection, schedule: Q04DX002 (ip), vehicle: saline with Tween-80 95 % of control | dose: 100.0 mg/kg/injection, schedule: Q04DX002 (ip), vehicle: saline with Tween-80 94 % of control | dose: 200.0 mg/kg/injection, schedule: Q04DX002 (ip), vehicle: saline with Tween-80 91 % of control

O=C(Nc1cccc2ccccc12)c1cc2c(cc1Br)OCO2
inactive: dose: 12.5 mg/kg/injection, schedule: Q01DX009 (ip), vehicle: distilled water + Tween-80 104 % of control | dose: 25.0 mg/kg/injection, schedule: Q01DX009 (ip), vehicle: distilled water + Tween-80 95 % of control | dose: 50.0 mg/kg/injection, schedule: Q01DX009 (ip), vehicle: distilled water + Tween-80 92 % of control | dose: 200.0 mg/kg/injection, schedule: Q01DX009 (ip), vehicle: distilled water + Tween-80 90 % of control

O=C(O)CNC(=O)C(Cl)Cl
inactive: dose: 50.0 mg/kg/injection, schedule: Q01DX005 (ip), vehicle: saline 100 % of control | dose: 100.0 mg/kg/injection, schedule: Q01DX005 (ip), vehicle: saline 100 % of control | dose: 200.0 mg/kg/injection, schedule: Q01DX005 (ip), vehicle: saline 90 % of control

CC(C)(C)C(=Nc1ccccc1)OC(c1ccccc1)(C(F)(F)F)C(F)(F)F
inactive: dose: 100.0 mg/kg/injection, schedule: Q04DX002 (ip), vehicle: Klucel (hydroxypropylcellulose) (HPC) 105 % of control | dose: 200.0 mg/kg/injection, schedule: Q04DX002 (ip), vehicle: Klucel (hydroxypropylcellulose) (HPC) 101 % of control | dose: 400.0 mg/kg/injection, schedule: Q04DX002 (ip), vehicle: Klucel (hydroxypropylcellulose) (HPC) 90 % of control

CC1=NN(C(C)(C)C)[Si]2(C(C)(C)C)C1[Si]1(C(C)(C)C)C2C(C)=NN1C(C)(C)C (configuration not stated)
inactive: [1] 92 % of control | [2] 86 % of control | [3] 90 % of control | [4] 90 % of control

O=C(NC(CCS(=O)(=O)NCc1ccc(S(=O)(=O)F)cc1)C(=O)OCc1ccccc1)OCc1ccccc1 (configuration not stated)
inactive: dose: 12.5 mg/kg/injection, schedule: Q01DX009 (ip), vehicle: other 90 % of control | dose: 25.0 mg/kg/injection, schedule: Q01DX009 (ip), vehicle: other 89 % of control | dose: 100.0 mg/kg/injection, schedule: Q01DX009 (ip), vehicle: other 102 % of control | dose: 200.0 mg/kg/injection, schedule: Q01DX009 (ip), vehicle: other 98 % of control
